Where two headings read alike, the source gives them in different places.
Assays:
Assay type in all cases: in vivo
Uncinula necator = assay: Grape powdery mildew (UNCINE) disease control; details: Erysiphe necator, 24 h, High volume application, 1 Day Protectant, read-out: UNCINE 1 DP disease control
Protocol: Technical grades of materials were dissolved in acetone, which were then mixed with nine volumes of water containing 110 ppm Triton X-100. The fungicide solutions were applied onto wheat seedlings using an automated booth sprayer to run-off. All sprayed plants were allowed to air dry prior to further handling. All fungicides were evaluated using the aforementioned method for their activity vs. all target diseases. Wheat leaf blotch and brown rust activity were also evaluated using track spray applications, in which case the fungicides were formulated as EC formulations, containing 0.1% Trycol 5941 in the spray solutions. Grape seedlings (variety Carignane) were grown in soil-less Metro mix, with one plant per pot, and used in the test when approximately one month old. Plants were inoculated 24 hr after fungicide treatment by shaking spores from infected leaves over test plants. Plants were maintained in a greenhouse set at 20° C. until disease was fully developed. Fungicide formulation, application and disease assessment on the sprayed leaves followed the procedures as described in the Example A.

Erysiphe cichoracearum = assay: Powdery mildew of cucumber (ERYSCI) disease control; details: Golovinomyces cichoracearum, 24 h, 1 Day Protectant, high volume, read-out: Disease Control ERYSCI 1 DP
Protocol: Technical grades of materials were dissolved in acetone, which were then mixed with nine volumes of water containing 110 ppm Triton X-100. The fungicide solutions were applied onto wheat seedlings using an automated booth sprayer to run-off. All sprayed plants were allowed to air dry prior to further handling. All fungicides were evaluated using the aforementioned method for their activity vs. all target diseases. Wheat leaf blotch and brown rust activity were also evaluated using track spray applications, in which case the fungicides were formulated as EC formulations, containing 0.1% Trycol 5941 in the spray solutions. Cucumber seedlings (variety Bush Pickle) were grown in soil-less Metro mix, with one plant per pot, and used in the test when 12 to 14 days old. Plants were inoculated with a spore suspension 24 hr following fungicide treatments. After inoculation the plants remained in the greenhouse set at 20° C. until disease was fully expressed. Fungicide formulation, application and disease assessment on the sprayed leaves followed the procedures as described in the Example A.

[1] = tested on: Mycosphaerella graminicola; Anamorph: Septoria tritici; assay: Leaf blotch of wheat (SEPTTR) disease control on wheat seedlings; details: Zymoseptoria tritici, High volume application, 100 ppm
Outline: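 Protective or curative format: Septoria tritici inoculation either preceded or followed fungicide application to first-leaf Yuma wheat. Severity scored 0–100%; control expressed versus untreated.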

[2] = tested on: Blumeria graminis f. sp. hordei; Synonym: Erysiphe graminis f. sp. hordei; assay: Barley powdery mildew (ERYSGH) disease control; details: 24 h, 1 Day Protectant, high volume, read-out: Disease Control ERYSGH 1 DP
Protocol: Technical grades of materials were dissolved in acetone, which were then mixed with nine volumes of water containing 110 ppm Triton X-100. The fungicide solutions were applied onto wheat seedlings using an automated booth sprayer to run-off. All sprayed plants were allowed to air dry prior to further handling. All fungicides were evaluated using the aforementioned method for their activity vs. all target diseases. Wheat leaf blotch and brown rust activity were also evaluated using track spray applications, in which case the fungicides were formulated as EC formulations, containing 0.1% Trycol 5941 in the spray solutions. Barley seedlings (variety Harrington) were propagated in soil-less Metro mix, with each pot having 8 to 12 plants, and used in the test when first leaf was fully emerged. Test plants were inoculated by dusting with infected stock plants 24 hr after fungicide treatments. After inoculation the plants were kept in a greenhouse set at 20° C. for disease to develop. Fungicide formulation, application and disease assessment on the sprayed leaves followed the procedures as described in the Example A.

Phakopsora pachyrhizi = assay: Asian soybean rust (PHAKPA) disease control; details: topical, high volume
Protocol: Technical grades of materials were dissolved in acetone, which were then mixed with nine volumes of water containing 0.011% Tween 20. The fungicide solutions were applied onto soybean seedlings using an automated booth sprayer to run-off. All sprayed plants were allowed to air dry prior to further handling.
Soybean plants (variety Williams 82) were grown in soil-less Metro mix, with one plant per pot. Two weeks old seedlings were used for testing. Plants were inoculated either 3 days prior to or 1 day after fungicide treatments. Plants were incubated for 24 h in a dark dew room at 22° C. and 100% RH then transferred to a growth room at 23° C. for disease to develop. Disease severity was assessed on the sprayed leaves.

[3] = 24 h, 1 Day Protectant, read-out: SEPTTR 1DP disease control
[4] = 72 h, 3 Day Curative, read-out: SEPTTR 3DC disease control
[5] = 24 h, 1 Day Protectant, read-out: Disease Control PHAKPA 1DP
[6] = 72 h, 3 Day Curative, read-out: Disease Control PHAKPA 3DC

Compound	pest or weed control at 100 ppm (Uncinula necator)	pest or weed control at 100 ppm (Erysiphe cichoracearum)	pest or weed control at 100 ppm [1, 3]	pest or weed control at 100 ppm [1, 4]	pest or weed control at 100 ppm [2]	pest or weed control at 25 ppm (Phakopsora pachyrhizi; [5])	pest or weed control at 25 ppm (Phakopsora pachyrhizi; [6])
COc1ccnc(C(=O)N[C@H]2CCC[C@H](OCC(C)C)[C@@H](Oc3ccccc3)[C@H](C)OC2=O)c1OCOC(=O)C(C)C [F34]	0 to 80%	0 to 80%	80 to 100%	80 to 100%	0 to 80%	80 to 100%	80 to 100%
COc1ccnc(C(=O)N[C@H]2CCC[C@H](Oc3ccccc3)[C@@H](OCC(C)C)[C@H](C)OC2=O)c1OCOC(=O)C(C)C [F35]	80 to 100%	80 to 100%	80 to 100%	80 to 100%	80 to 100%	80 to 100%	
COc1ccnc(C(=O)N[C@H]2CCC[C@H](Oc3ccccc3)[C@@H](Oc3ccccc3)[C@H](C)OC2=O)c1OCOC(=O)C(C)C [F36]	0 to 80%	0 to 80%	80 to 100%	80 to 100%	0 to 80%	80 to 100%	80 to 100%
COc1ccnc(C(=O)N[C@H]2CCC[C@H](OCC(C)C)[C@@H](OCC(C)C)[C@H](C)OC2=O)c1OCOC(=O)C(C)C [F37]	80 to 100%	80 to 100%	80 to 100%	80 to 100%	80 to 100%	80 to 100%	
COc1ccnc(C(=O)N[C@H]2CCC[C@H](OCC(C)C)[C@@H](OC3CCCC3)[C@H](C)OC2=O)c1OCOC(=O)C(C)C [F38]	80 to 100%	80 to 100%	80 to 100%	80 to 100%	80 to 100%	80 to 100%	80 to 100%
COc1ccnc(C(=O)N[C@H]2CCC[C@H](Oc3ccccc3)[C@@H](OCCCc3ccccc3)[C@H](C)OC2=O)c1OCOC(C)=O [F130]	0 to 80%	80 to 100%	80 to 100%	80 to 100%	0 to 80%	80 to 100%	0 to 80%
COCCC(=O)Oc1c(OC)ccnc1C(=O)N[C@H]1CCC[C@H](Oc2ccccc2)[C@@H](OCCCc2ccccc2)[C@H](C)OC1=O [F132]	0 to 80%	0 to 80%	80 to 100%	80 to 100%	0 to 80%		
COc1ccnc(C(=O)N[C@H]2CCC[C@H](OCCCc3ccccc3)[C@@H](Oc3ccccc3)[C@H](C)OC2=O)c1OC(C)=O [F134]	0 to 80%	0 to 80%	80 to 100%	80 to 100%	0 to 80%		
CCCO[C@H]1CCC[C@H](NC(=O)c2nccc(OC)c2OCOC(C)=O)C(=O)O[C@@H](C)[C@@H]1Oc1ccccc1 [F138]	0 to 80%	0 to 80%	80 to 100%	80 to 100%	0 to 80%	80 to 100%	80 to 100%
CCCO[C@H]1CCC[C@H](NC(=O)c2nccc(OC)c2OCOC(=O)C(C)C)C(=O)O[C@@H](C)[C@@H]1Oc1ccccc1 [F139]	0 to 80%	0 to 80%	80 to 100%	80 to 100%	< 0%	80 to 100%	80 to 100%
CCCO[C@H]1CCC[C@H](NC(=O)c2nccc(OC)c2OC(=O)CCOC)C(=O)O[C@@H](C)[C@@H]1Oc1ccccc1 [F140]	0 to 80%	< 0%	80 to 100%	80 to 100%	0 to 80%	80 to 100%	80 to 100%
CCCO[C@H]1CCC[C@H](NC(=O)c2nccc(OC)c2OCOC(=O)C(C)C)C(=O)O[C@@H](C)[C@@H]1OC1CCCC1 [F154]	0 to 80%	80 to 100%	80 to 100%	80 to 100%	80 to 100%	80 to 100%	80 to 100%
CCCO[C@H]1CCC[C@H](NC(=O)c2nccc(OC)c2OCOC(C)=O)C(=O)O[C@@H](C)[C@@H]1OC1CCCC1 [F155]	0 to 80%	80 to 100%	80 to 100%	80 to 100%	80 to 100%	80 to 100%	80 to 100%
COc1ccnc(C(=O)N[C@H]2CCC[C@H](OC3CCCC3)[C@@H](OCCCc3ccccc3)[C@H](C)OC2=O)c1OCOC(C)=O [F165]	0 to 80%	0 to 80%	80 to 100%	80 to 100%	0 to 80%	80 to 100%	0 to 80%
CCCCCO[C@H]1[C@H](C)OC(=O)[C@@H](NC(=O)c2nccc(OC)c2OCOC(C)=O)CCC[C@@H]1OC1CCCC1 [F166]	0 to 80%	80 to 100%	80 to 100%	80 to 100%	80 to 100%	80 to 100%	80 to 100%
COc1ccc(O[C@H]2CCC[C@H](NC(=O)c3nccc(OC)c3OCOC(=O)C(C)C)C(=O)O[C@@H](C)[C@@H]2OC2CCCC2)cc1 [F169]	0 to 80%	80 to 100%	80 to 100%	80 to 100%	0 to 80%		
COc1ccc(O[C@H]2CCC[C@H](NC(=O)c3nccc(OC)c3OCOC(C)=O)C(=O)O[C@@H](C)[C@@H]2OC2CCCC2)cc1 [F170]	0 to 80%	0 to 80%	80 to 100%	80 to 100%	0 to 80%	80 to 100%	0 to 80%
COc1ccnc(C(=O)N[C@H]2CCC[C@H](OCCCC(F)(F)F)[C@@H](OC3CCCC3)[C@H](C)OC2=O)c1OCOC(=O)C(C)C [F171]	0 to 80%	80 to 100%	80 to 100%	80 to 100%	0 to 80%		
COc1ccnc(C(=O)N[C@H]2CCC[C@H](OCCCC(F)(F)F)[C@@H](OC3CCCC3)[C@H](C)OC2=O)c1OC(C)=O [F173]	0 to 80%	0 to 80%	80 to 100%	80 to 100%	0 to 80%		
